Measured values published in patent US9040566B2, “Adenosine A1 agonists for the treatment of glaucoma and ocular hypertension” (Bayer Intellectual Property GmbH, priority 2010, dated 2015).

Assays:
rabbits = conditions: literature (Crosson); cited from earlier work
cynomolgus monkeys = conditions: literature (Kaufman et al.); cited from earlier work
Wistar rats = assay: IOP measurements in rats (anesthetized, topical administration to the eye); type: in vivo; conditions: rat, 10 mg/ml, 10 μl
Experimental: B-1. IOP Measurements in Rats
Wistar rats with a body weight of about 300 g were anesthetized with isoflurane (2-3% in O2:N2O=1:2). The compounds were dissolved/suspended in an aqueous solution of sodium chloride (0.9%) and administered topically to the eye in 10 μl volume at a concentration of 10 mg/ml. IOP was measured with a rebound tonometer (TonoLab) at different time points after application of the compounds. Ocular pressure and effects of hemodynamic parameters can be monitored in this model. N^6-Cyclopentyl-Adenosine (CPA) is a known adenosine A1 agonist having the structure shown below: […]

Normotensive wistar rats = assay: Blood pressure measurement in telemetric rats (conscious, topical administration to the eye); type: in vivo; conditions: conscious rat, 10 mg/ml
Text: B-2. Blood Pressure Measurement in Telemetric Rats
Normotensive wistar rats with a body weight of 300 to 350 g were used for this experimental study. Blood pressure was monitored in freely moving conscious animals by radiotelemetry. Briefly, the telemetric system (DSI Data Science International, MN, USA) is composed on 3 basic elements: implantable transmitters (TA11PA-C40), receivers (RA1010) and a computer-based acquisition software (Dataquest A.R.T 2.1 for Windows). Rats were instrumented with pressure implants for chronic use at least 14 days prior the experiments. Rats were anesthetized with isoflurane (2-3% in O2:N2O=1:2). During catheter implantation under anesthesia, rats were kept on a heating mat. A fluid-filled sensor catheter was inserted upstream into the exposed descending aorta between the iliac bifurcation and the renal arteries. According to the DSI guidelines the tip of the telemetric catheter was located just caudal to the renal arteries and secured by tissue adhesive. The transmitter body was affixed to the inner peritoneal wall before closure of abdomen. In a hardware configuration equipped for 24 animals, each rat cage was positioned on top of an individual receiver platform. After activation of the implanted transmitters, A.R.T., an on-line data acqusition system, samples data and converts telemetric pressure signals into mm Hg. The compounds were dissolved/suspended in an aqueous solution of sodium chloride (0.9%) and administered topically to the eye in 10 μl volume at a concentration of 10 mg/ml. Given are % deviations from the control run-in period of 2 hours before substance administration.

[1] = test system: Female New Zealand rabbits; assay: IOP measurements in conscious rabbits; type: in vivo; conditions: conscious rabbit, topical, 30 μl
Experimental: B-5. IOP Measurements in Conscious Rabbits
Female New Zealand rabbits with a body weight of about 4-5 kg were used to measure inner eye pressure (IOP). The compounds were dissolved/suspended in a solution of 10% transcutol, 10% solutol and 80% PBS, and given by topical administration at the eye in 30 μl volume. IOP was measured with a rebound tonometer (TonoVet) at different time points after application of the drugs. INO-8875 is a known adenosine A1 agonist having the structure shown below: […]

New Zealand rabbits = assay: Assessment of blood pressure in telemetric rabbits; type: in vivo; conditions: conscious rabbit, topical, 30 μl
Experimental: B-6. Assessment of Blood Pressure and Heart Rate in Telemetric Rabbits Implantation of Telemetric Senders in Female New Zealand Rabbits:
New Zealand rabbits were used for implantation of the telemetric senders. Rabbits were pre-anaesthetized with Rompun® and Ketavet® i.m. at a dose of 5 mg/kg (in 0.25 ml/kg)+40 mg/kg (in 0.40 ml/kg) respectively. Anaesthesia was maintained with an i.v. infusion of Rompun® and Ketavet® (5-15 ml/h) with a solution of Rompun 2 ml (20 mg/1 ml)+Ketavet 4 ml (100 mg/ml) and 60 ml 0.9% aqueous solution of sodium chloride. Before surgery the hairs at the inner side of the back leg were completely removed and the skin were treated with local anaesthetic Xylocaln® Spray and disinfected with Braunol®. The rabbits were transferred to a sterile surgery unit and covered with sterile swabs and compressions. The skin was opened and the arteria femoralis was carefully dissected free and the pressure catheter of the telemetric implant C50 PXT® (DSI/Data Science International, St. Paul, Minn., U.S.A.) was inserted in the […] and forwarded abdominally under control of the pressure signal. The signal was detected with the RMC1-DSI® receiver plates and visualized with the PONEMAH® physiology platform software DSI/Data Science International, St. Paul, Minn., U.S.A.). After detection of a stable blood pressure signal the catheter was fixed with tissue-glue “Gewebepad” (DSI) and the two ECG electrodes were cut close to the transmitter. The transmitter was fixed under the skin of the rabbit. The wound was closed and finally treated with Nebacetin® Powder Spray. Post-operative analgesia was done with Metamizol i.m. 50 mg/kg in 0.1 ml/kg for 5 days after surgery. In addition a 5 day antibiotic therapy with Terramycin®/LA 20 mg/kg with 0.1 ml/kg was applied i.m. All rabbits recovered fully within one week of the surgery and were after 2 weeks adjustment to the measurement procedure used for the blood pressure detection.
Registration of MAP and HR in Conscious Female New Zealand Rabbits:
The rabbits with telemetric implants were housed for 5 hours in a transportation box which was placed on the RMC1-DSI® receiver plates. The signals were visualized, compiled and analyzed with the PONEMAH® physiology platform software. The systolic (SAP), diastolic (DAP) and mean arterial blood pressure (MAP) levels were registered in mmHg and the heart rate (HR) in beat/minutes was calculated from the interval between the systoles. Baseline levels for SAP, DAP and MAP as for HR were registered over a 2 hour equilibration period. The compounds were dissolved/suspended in a solution of 10% transcutol, 10% solutol and 80% PBS, and given by topical administration at the eye in 30 μl volume. Controls received the corresponding solvents. Baseline levels for SAP, DAP and MAP as for HR were registered over a 3 hour period after application.

OC[C@H]1O[C@@H](n2cnc3c(NC4CCCCC4)ncnc32)[C@H](O)[C@@H]1O [CHA, N6-cyclohexyl-adenosine]
effect on intraocular pressure (rabbits): lower intraocular pressure
effect on intraocular pressure (cynomolgus monkeys): lower intraocular pressure

OC[C@H]1O[C@@H](n2cnc3c(NC4CCCC4)ncnc32)[C@H](O)[C@@H]1O [CPA, N^6-Cyclopentyl-Adenosine]
IOP as percent of zero value (Wistar rats; time 0 min): 100.0%
IOP as percent of zero value (Wistar rats; time 15 min): 65.0%
IOP as percent of zero value (Wistar rats; time 30 min): 58.5%
IOP as percent of zero value (Wistar rats; time 45 min): 46.3%
IOP as percent of zero value (Wistar rats; time 60 min): 42.5%
IOP as percent of zero value (Wistar rats; time 90 min): 44.8%
IOP as percent of zero value (Wistar rats; time 120 min): 59.0%
mean arterial pressure (MAP) as percent change of zero value (Normotensive wistar rats; time 0.25 h): −25.4%
mean arterial pressure (MAP) as percent change of zero value (Normotensive wistar rats; time 0.75 h): −71.3%
mean arterial pressure (MAP) as percent change of zero value (Normotensive wistar rats; time 1.25 h): −58.9%
mean arterial pressure (MAP) as percent change of zero value (Normotensive wistar rats; time 1.75 h): −42.6%
mean arterial pressure (MAP) as percent change of zero value (Normotensive wistar rats; time 2.25 h): −30.3%
mean arterial pressure (MAP) as percent change of zero value (Normotensive wistar rats; time 2.75 h): −17.6%
mean arterial pressure (MAP) as percent change of zero value (Normotensive wistar rats; time 3.25 h): −16.4%
mean arterial pressure (MAP) as percent change of zero value (Normotensive wistar rats; time 3.75 h): −9.0%
mean arterial pressure (MAP) as percent change of zero value (Normotensive wistar rats; time 4.25 h): −8.4%
mean arterial pressure (MAP) as percent change of zero value (Normotensive wistar rats; time 4.75 h): −5.3%
mean arterial pressure (MAP) as percent change of zero value (Normotensive wistar rats; time 5.25 h): −0.7%
mean arterial pressure (MAP) as percent change of zero value (Normotensive wistar rats; time 5.75 h): −2.9%
mean arterial pressure (MAP) as percent change of zero value (Normotensive wistar rats; time 6.25 h): −2.7%
mean arterial pressure (MAP) as percent change of zero value (Normotensive wistar rats; time −0.25 h): 0.0%

O=[N+]([O-])OC[C@H]1O[C@@H](n2cnc3c(NC4CCCC4)ncnc32)[C@H](O)[C@@H]1O [INO-8875]
IOP as percent of zero value ([1]; 1.0 mg/mL, time 0 min): 100.0%
IOP as percent of zero value ([1]; 1.0 mg/mL, time 30 min): 85.3%
IOP as percent of zero value ([1]; 1.0 mg/mL, time 60 min): 86.7%
IOP as percent of zero value ([1]; 1.0 mg/mL, time 90 min): 93.3%
IOP as percent of zero value ([1]; 1.0 mg/mL, time 120 min): 100%
IOP as percent of zero value ([1]; 3.0 mg/mL, time 0 min): 100.0%
IOP as percent of zero value ([1]; 3.0 mg/mL, time 30 min): 89.3%
IOP as percent of zero value ([1]; 3.0 mg/mL, time 60 min): 81.3%
IOP as percent of zero value ([1]; 3.0 mg/mL, time 90 min): 79.0%
IOP as percent of zero value ([1]; 3.0 mg/mL, time 120 min): 87.3%
IOP as percent of zero value ([1]; 10.0 mg/mL, time 0 min): 100.0%
IOP as percent of zero value ([1]; 10.0 mg/mL, time 30 min): 74.0%
IOP as percent of zero value ([1]; 10.0 mg/mL, time 60 min): 60.0%
IOP as percent of zero value ([1]; 10.0 mg/mL, time 90 min): 61.3%
IOP as percent of zero value ([1]; 10.0 mg/mL, time 120 min): 65.0%
mean arterial pressure (MAP) (New Zealand rabbits; 1.0 mg/mL, time 0 min): 123.9 mm Hg
mean arterial pressure (MAP) (New Zealand rabbits; 1.0 mg/mL, time 30 min): 111.3 mm Hg
mean arterial pressure (MAP) (New Zealand rabbits; 1.0 mg/mL, time 60 min): 110.9 mm Hg
mean arterial pressure (MAP) (New Zealand rabbits; 1.0 mg/mL, time 90 min): 112.6 mm Hg
mean arterial pressure (MAP) (New Zealand rabbits; 1.0 mg/mL, time 120 min): 106.0 mm Hg
mean arterial pressure (MAP) (New Zealand rabbits; 3.0 mg/mL, time 0 min): 118.5 mm Hg
mean arterial pressure (MAP) (New Zealand rabbits; 3.0 mg/mL, time 30 min): 101.8 mm Hg
mean arterial pressure (MAP) (New Zealand rabbits; 3.0 mg/mL, time 60 min): 104.9 mm Hg
mean arterial pressure (MAP) (New Zealand rabbits; 3.0 mg/mL, time 90 min): 105.7 mm Hg
mean arterial pressure (MAP) (New Zealand rabbits; 3.0 mg/mL, time 120 min): 109.0 mm Hg
mean arterial pressure (MAP) (New Zealand rabbits; 10.0 mg/mL, time 0 min): 114.5 mm Hg
mean arterial pressure (MAP) (New Zealand rabbits; 10.0 mg/mL, time 30 min): 89.5 mm Hg
mean arterial pressure (MAP) (New Zealand rabbits; 10.0 mg/mL, time 60 min): 86.9 mm Hg
mean arterial pressure (MAP) (New Zealand rabbits; 10.0 mg/mL, time 90 min): 90.3 mm Hg
mean arterial pressure (MAP) (New Zealand rabbits; 10.0 mg/mL, time 120 min): 90.0 mm Hg

C[C@H](Cc1ccccc1)Nc1ncnc2c1ncn2[C@@H]1O[C@H](CO)[C@@H](O)[C@H]1O [R-PIA, R(−)-N6-(2-phenylisopropyl)adenosine]
effect on intraocular pressure (rabbits): lower intraocular pressure
effect on intraocular pressure (cynomolgus monkeys): lower intraocular pressure
